The target in this assay is T1, tissue-nonspecific alkaline phosphatase (TNAP) (Homo sapiens, UniProt P05186).
T1 sequence (P05186 18-501): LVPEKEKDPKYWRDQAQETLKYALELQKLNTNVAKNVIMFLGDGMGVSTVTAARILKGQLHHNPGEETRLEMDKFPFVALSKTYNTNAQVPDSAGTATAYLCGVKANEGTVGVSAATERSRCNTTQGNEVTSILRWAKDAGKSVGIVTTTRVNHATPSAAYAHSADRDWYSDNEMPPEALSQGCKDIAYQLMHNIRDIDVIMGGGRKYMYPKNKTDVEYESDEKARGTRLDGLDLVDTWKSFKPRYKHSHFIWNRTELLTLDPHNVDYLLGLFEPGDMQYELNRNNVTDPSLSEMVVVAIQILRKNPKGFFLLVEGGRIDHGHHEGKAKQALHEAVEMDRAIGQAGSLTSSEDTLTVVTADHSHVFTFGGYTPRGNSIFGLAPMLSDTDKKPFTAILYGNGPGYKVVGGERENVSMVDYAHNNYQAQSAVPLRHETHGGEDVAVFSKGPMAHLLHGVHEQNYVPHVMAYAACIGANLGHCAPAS
In words: in vitro TNAP inhibition IC50. Type of assay: biochemical.

`COc1ccc(Cl)cc1S(=O)(=O)Nc1cncc(C(N)=O)c1` [SBI-425]: the IC50 – broadly, the concentration needed to halve the response being measured – amounted to 14 nM.

The values above are taken from PMC4406354 (Journal of bone and mineral research : the official journal …, 2015).
